Laboratory results taken from patent US20220280593A1, “METHODS FOR […] CORONARY ARTERY BYPASS GRAFT PROCEDURE” (Stealth BioTherapeutics Inc., priority 2009, published 2022).
Entries after “also recorded” stand apart in the source; their conditions may differ. Non-standard residues stand in square brackets, D forms with d. No end group written: not given here.

Experiments:
mu-opioid receptor = details: cited from earlier work
[1] = system: several mammalian cell types; details: energy-independent manner; Zhao et al., 2003; cited from earlier work
[2] = system: New Zealand white rabbits; assay: Rabbit model of acute myocardial ischemia and reperfusion (30 min ischemia, 180 min reperfusion), infarct size by histomorphometry; assay type: in vivo
Method: New Zealand white rabbits were used in this study. The rabbits were males and >10 weeks in age. Environmental controls in the animal rooms were set to maintain temperatures of 61° to 72° F. and relative humidity between 30% and 70%. Room temperature and humidity were recorded hourly, and monitored daily. There were approximately 10-15 air exchanges per hour in the animal rooms. Photoperiod was 12-hr light/12-hr dark (via fluorescent lighting) with exceptions as necessary to accommodate dosing and data collection. Routine daily observations were performed. Harlan Teklad, Certified Diet (2030C), rabbit diet was provided approximately 180 grams per day from arrival to the facility. In addition, fresh fruits and vegetables were given to the rabbit 3 times a week.
The peptide D-Arg-2′6′-Dmt-Lys-Phe-NH2 (sterile lyophilized powder) was used as the test article. Dosing solutions were formulated at no more than 1 mg/ml, and were delivered via continuous infusion (IV) at a constant rate (e.g., 50 μL/kg/min). Normal saline (0.9% NaCl) was used as a control.
The test/vehicle articles were given intravenously, under general anesthesia, in order to mimic the expected route of administration in the clinical setting of AMI and PTCA. Intravenous infusion was administered via a peripheral vein using a Kd Scientific infusion pump (Holliston, MA 01746) at a constant volume (e.g., 50 μL/kg/min).
The study followed a predetermined placebo and sham controlled design. In short, 10-20 healthy, acclimatized, male rabbits were assigned to one of three study arms (approximately 2-10 animals per group). Arm A (n=10, CTRL/PLAC) includes animals treated with vehicle (vehicle; VEH, IV); Arm B (n=10, treated) includes animals treated with peptide; Arm C (n=2, SHAM) includes sham-operated time-controls treated with vehicle (vehicle; VEH, IV) or peptide.
In all cases, treatments were started approximately 10 min after the onset of a 30 min ischemic insult (coronary occlusion) and continued for up to 3 h following reperfusion. In all cases, cardiovascular function was monitored both prior to and during ischemia, as well as for up to 180 min (3 h) post-reperfusion. The experiments were terminated 3 h post-reperfusion (end of study); irreversible myocardial injury (infarct size by histomorphometery) at this time-point was evaluated, and was the primary-end-point of the study.
Following hemodynamic stabilization and baseline measurements, the animals were subjected to an acute 30 min ischemic insult by tightening of the LAD/LCX coronary artery snares. […]
Histopathology/Histomorphometery. At the completion of the protocol, irreversible myocardial injury (i.e., infarction) resulting from the I/R insult was evaluated. […]

[3] = Stability of the drug substance; assay type: physicochemical
Method: Study Drug. D-Arg-2′6′-Dmt-Lys-Phe-NH2 is a small peptide (CAS No. 736992-21-5). Its molecular weight is 639.8 (free base). […] The drug substance will be provided as a lyophilized powder in sterile glass vials. Each vial will be reconstituted with 10 mL of sterile D5W by the unblinded pharmacist at each site.

mitochondria [4] = details: cited from earlier work
mitochondria [5] = details: cited from earlier work; remark: listed apart in the source
animal model of ARI = details: cited from earlier work
wild type mice = details: treatment at 0, 6, 24 and 48 hours after 30 min occlusion; U.S. Patent Publication No. 20070129306; cited from earlier work
[6] = IV continuous infusion from 10 min into 30 min ischemia through 180 min reperfusion, n = 10, p < 0.05 vs placebo
[7] = 45 min ischemia and 24 h reperfusion

Substance: F[dR]FK-NH2
- mu-opioid receptor agonist activity (mu-opioid receptor): does not have mu-opioid receptor agonist activity

Substance: 2′,6′-Dmt-D-Arg-Phe-Lys-NH2
- penetration of the plasma membrane [1]: readily penetrates

Substance: D-Arg-2′,6′-Dmt-Lys-Phe-NH2
- myocardial infarct size compared to the control ([2]; 30 min ischemia, infusion continued 180 min after reperfusion, listed as peptide): decreased infarct size; also recorded: able to reduce myocardial infarct size
- Myocardial Area IA/AR (infarcted area / area at risk) [2, 6]: 24.7 ± 4.7%
- Myocardial Area IA/LV (infarcted area / left ventricular area) [2, 6]: 16.2 ± 3.4%
- myocardial salvage ([2]; treatment for less than 3 hours after reperfusion, i.e., 30 min, data not shown): comparable myocardial salvage
- resistance to oxidation [3]: resistant to oxidation
- temperature up to which stable [3]: up to 40 °C
- stability to light ([3]; powder or liquid form): stable to light
- concentration in the mitochondrial pellet relative to extracellular fluid (mitochondria [4]): approximately 5000 fold
- intracellular concentration relative to extracellular fluid (mitochondria [4]): six
- adenosine triphosphate (ATP) levels (mitochondria [5]): maintaining
- electron transfer within the mitochondrial electron transport chain (mitochondria [5]): facilitating
- loss of mitochondrial membrane potential (mitochondria [5]): preventing
- mitochondrial respiration (oxygen consumption) (mitochondria [5]): maintaining
- mitochondrial swelling (mPTP opening) (mitochondria [5]): preventing
- reactive oxygen species (ROS) (mitochondria [5]): scavenging
- release of cytochrome c (mitochondria [5]): preventing
- histopathological score (animal model of ARI; [7]): significantly improved
- rate of ATP production after reperfusion (animal model of ARI; [7]): significantly increased
- incidence of ARI caused by ischemia-reperfusion (animal model of ARI; U.S. Patent Publication No. 20090221514): effective in reducing
- interstitial fibrosis, tubular apoptosis, macrophage infiltration and tubular proliferation (animal model of ARI; animal model of ARI): effective in reducing
- hemispheric swelling compared to saline controls (wild type mice): significant reduction
- infarct volume compared to saline controls (wild type mice): significant reduction
- mu-opioid receptor agonist activity (mu-opioid receptor): does not have mu-opioid receptor agonist activity

Substance: Tyr-D-Arg-Phe-Lys-NH2
- mu-opioid receptor agonist activity (mu-opioid receptor): has mu-opioid receptor agonist activity
